Measurements from PMC10539361, “Allosteric modulation of the fish taste receptor type 1 (T1R) family by the extracellular chloride ion” (Scientific Reports, 2023).

Molecular target: T1, hT1R2/hT1R3 (Homo sapiens, UniProt Q7RTX0+Q8TE23)
T1 construct: expressed in transfected cells
T1 sequence (Q8TE23 20-839): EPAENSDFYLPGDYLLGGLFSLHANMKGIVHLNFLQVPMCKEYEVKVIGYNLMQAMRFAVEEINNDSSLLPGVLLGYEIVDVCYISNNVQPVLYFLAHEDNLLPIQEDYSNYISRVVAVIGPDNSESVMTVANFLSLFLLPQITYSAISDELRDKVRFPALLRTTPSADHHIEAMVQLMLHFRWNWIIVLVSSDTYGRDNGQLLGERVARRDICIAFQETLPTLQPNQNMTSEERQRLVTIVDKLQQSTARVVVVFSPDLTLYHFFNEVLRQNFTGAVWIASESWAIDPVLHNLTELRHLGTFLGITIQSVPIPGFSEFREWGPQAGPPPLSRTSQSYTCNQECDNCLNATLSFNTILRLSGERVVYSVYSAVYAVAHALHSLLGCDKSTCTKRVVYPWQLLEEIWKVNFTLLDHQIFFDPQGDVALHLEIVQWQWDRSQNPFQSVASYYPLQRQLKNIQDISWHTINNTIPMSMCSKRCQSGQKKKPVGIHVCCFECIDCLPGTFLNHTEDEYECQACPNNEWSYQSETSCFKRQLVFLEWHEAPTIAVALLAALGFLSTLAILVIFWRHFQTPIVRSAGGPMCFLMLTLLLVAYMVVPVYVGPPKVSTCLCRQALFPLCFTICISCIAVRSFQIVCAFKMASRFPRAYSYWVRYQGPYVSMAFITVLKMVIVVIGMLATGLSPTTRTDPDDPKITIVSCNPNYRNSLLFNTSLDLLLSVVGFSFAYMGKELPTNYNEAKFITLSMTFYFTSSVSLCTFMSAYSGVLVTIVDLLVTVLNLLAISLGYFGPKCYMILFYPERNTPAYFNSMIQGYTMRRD
T1 sequence (Q7RTX0 21-852): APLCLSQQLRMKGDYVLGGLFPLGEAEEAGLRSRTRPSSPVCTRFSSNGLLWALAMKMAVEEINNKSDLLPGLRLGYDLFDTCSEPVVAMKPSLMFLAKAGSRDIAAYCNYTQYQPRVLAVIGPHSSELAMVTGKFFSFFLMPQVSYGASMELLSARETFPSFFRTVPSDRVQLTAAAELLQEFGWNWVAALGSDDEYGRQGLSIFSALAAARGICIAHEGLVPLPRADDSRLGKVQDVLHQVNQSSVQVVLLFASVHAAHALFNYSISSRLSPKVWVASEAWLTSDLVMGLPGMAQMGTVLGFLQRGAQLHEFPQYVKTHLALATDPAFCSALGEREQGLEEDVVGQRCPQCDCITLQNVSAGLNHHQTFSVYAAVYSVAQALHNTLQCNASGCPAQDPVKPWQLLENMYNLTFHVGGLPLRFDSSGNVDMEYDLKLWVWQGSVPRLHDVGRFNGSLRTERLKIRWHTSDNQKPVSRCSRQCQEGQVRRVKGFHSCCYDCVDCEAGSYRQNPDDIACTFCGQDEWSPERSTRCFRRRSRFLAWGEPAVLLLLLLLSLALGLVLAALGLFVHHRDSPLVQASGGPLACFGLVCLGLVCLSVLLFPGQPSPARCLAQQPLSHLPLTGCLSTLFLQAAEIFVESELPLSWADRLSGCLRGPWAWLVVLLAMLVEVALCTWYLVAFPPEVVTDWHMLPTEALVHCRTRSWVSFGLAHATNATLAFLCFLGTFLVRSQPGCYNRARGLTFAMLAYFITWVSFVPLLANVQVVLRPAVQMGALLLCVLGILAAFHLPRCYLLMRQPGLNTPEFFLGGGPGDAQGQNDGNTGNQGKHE
Assay: Effect of anions, cations and osmotic pressure on cellular responses, cells in 10 mM Cl- buffer, hT1R2/hT1R3
Type: cell-based
Conditions: for cellular response to the salt alone: without agonist, cells in 10 mM Cl- buffer
Description: Cells were seeded in 96-well plates coated with ε-poly-L-lysine at approximately 70,000 cells per well. […] Fluorescence changes were monitored at 2 s intervals, as described above. […] Three independent experiments were conducted for each receptor, and representative results are shown as the mean ± SEM (n = 3 replicates). Statistical tests were conducted using KyPlot version 6.0 (KyensLab Inc., Tokyo, Japan). Statistical significance was set at p < 0.05.

Row | SMILES | cellular response to the salt alone | response intensity to sucralose on coapplication of the salt at higher concentrations (coapplied with 150 µM sucralose, above 60 mM final [Cl-]o or equivalent osmotic pressure) | response intensity to sucralose on coapplication of the salt (coapplied with 150 µM sucralose, up to 60 mM [Cl-]o, compared to response at 10 mM [Cl-]o)
1 | O=C([O-])[C@H](O)[C@@H](O)[C@H](O)[C@H](O)CO.[Na+] [Na-gluconate, sodium gluconate] | neither NaCl nor Na-gluconate alone elicited cellular responses |  | 
2 | [Cl-].[Na+] [NaCl] | neither NaCl nor Na-gluconate alone elicited cellular responses | decreased | no significant difference
